Measurements as given in US10870638B2, “Pyridazinone compound or its salt, and herbicide containing it” (ISHIHARA SANGYO KAISHA, LTD., priority 2016, dated 2020).

Assays:
Test in all cases: Test Example 1: foliar treatment, growth inhibition rate on 14th day
Format in all cases: in vivo
Conditions in all cases: active ingredient amount 31 g/ha, 14th day after application
[1] = test system: redroot pigweed (Amaranthus retroflexus L.)
Description: (§1) Upland field soil was put into a 1/300,000 hectare pot, and seeds of various plants were sown. When the respective plants reached predetermined leaf stage ((1) barnyardgrass (Echinochloa crus-[…].): 0.5 to 2.9 leaf stage, (2) crabgrass (Digitaria sanquinalis L.): 0.5 to 3.0 leaf stage, (3) green foxtail (Setaria viridis L.): 0.5 to 3.2 leaf stage, (4) wild oat (Avena fatua L.): 0.4 to 1.2 leaf stage, (5) italian ryegrass (Lolium multiflorum Lam.): 0.4 to 2.0 leaf stage, (6) redroot pigweed (Amaranthus retroflexus L.): cotyledon stage to 2.2 leaf stage, (7) rice (Oryza sativa L.): 0.2 to 2.7 leaf stage, (8) corn (Zea mays L.): 1.7 to 3.6 leaf stage, (9) wheat (Triticum aestivum L.): 1.3 to 2.3 leaf stage, (10) soybean (Glycine max Merr.); primary leaf stage), wettable powders or emulsifiable concentrates of the compounds of the present invention prepared in accordance with a conventional preparation method, were weighed so as to achieve the prescribed active ingredient amounts, and diluted with water in an amount corresponding to 1,000 liters per 1 hectare (containing 0.1 vol % of an agricultural spreader (surfactant WK manufactured by MARUWA BIOCHEMICAL Co., Ltd.)), and the spray solutions thus prepared were applied for foliar treatment by a small sprayer. On the 14th day after the application, the state of growth of the respective plants was visually observed, and the herbicidal effect was evaluated by a growth inhibition rate (%) of 0 (equivalent to the non-treated area) to 100 (complete kill).

[2] = test system: green foxtail (Setaria viridis L.)
Description: as §1

[3] = test system: barnyardgrass (Echinochloa crus-qalli L.)
Description: as §1

[4] = test system: corn (Zea mays L.)
Description: as §1

[5] = test system: crabgrass (Digitaria sanquinalis L.)
Description: as §1

[6] = test system: rice (Oryza sativa L.)
Description: as §1

[7] = test system: italian ryegrass (Lolium multiflorum Lam.)
Description: as §1

[8] = test system: soybean (Glycine max Merr.)
Description: as §1

[9] = test system: wild oat (Avena fatua L.)
Description: as §1

[10] = test system: wheat (Triticum aestivum L.)
Description: as §1

Compound | Growth inhibition rate (%) Redroot pigweed [1] [%] | Growth inhibition rate (%) Green foxtail [2] [%] | Growth inhibition rate (%) Barnyardgrass [3] [%] | Growth inhibition rate (%) Corn [4] [%] | Growth inhibition rate (%) Crabgrass [5] [%] | Growth inhibition rate (%) Rice [6] [%] | Growth inhibition rate (%) Italian ryegrass [7] [%] | Growth inhibition rate (%) Soybean [8] [%] | Growth inhibition rate (%) Wild oat [9] [%] | Growth inhibition rate (%) Wheat [10] [%]
COc1ccc(Oc2ncc(C(F)(F)F)cc2Cl)cc1-c1c(O)c(C)nn(C)c1=O [1-10] | 0 | 90 | 70 | 60 | 90 | 0 | 0 | 20 | 20 | 0
Cc1ccc(Oc2ncc(C(F)(F)F)cc2Cl)c(C)c1-c1c(O)c(C)nn(C)c1=O [1-13] | 0 | 100 | 100 | 88 | 95 | 40 | 70 | 0 | 75 | 20
COC(=O)OC(C)Oc1c(C)nn(C)c(=O)c1-c1cc(Oc2ncc(C(F)(F)F)cc2Cl)ccc1C (stereo not drawn) [1-130] | 0 | 99 | 100 | 95 | 99 | 30 | 93 | 0 | 98 | 80
CCOC(=O)OC(C)Oc1c(C)nn(C)c(=O)c1-c1cc(Oc2ncc(C(F)(F)F)cc2Cl)ccc1C (stereo not drawn) [1-131] | 0 | 93 | 100 | 80 | 100 | 30 | 83 | 0 | 93 | 60
Cc1ccc(Oc2ncc(C(F)(F)F)cc2Cl)cc1-c1c(OC(C)OC(=O)OC(C)C)c(C)nn(C)c1=O (stereo not drawn) [1-133] | 0 | 30 | 88 | 0 | 0 | 0 | 0 | 0 | 40 | 0
COCCOCOc1c(C)nn(C)c(=O)c1-c1cc(Oc2ncc(C(F)(F)F)cc2Cl)ccc1C [1-134] | 0 | 100 | 98 | 93 | 99 | 88 | 98 | 0 | 99 | 98
CCCCC(=O)Oc1c(C)nn(C)c(=O)c1-c1cc(Oc2ncc(C(F)(F)F)cc2Cl)ccc1C [1-135] | 0 | 100 | 100 | 98 | 99 | 90 | 100 | 0 | 100 | 100
Cc1ccc(Oc2ncc(C(F)(F)F)cc2Cl)cc1-c1c(OC(=O)c2nn(C)cc2C)c(C)nn(C)c1=O [1-136] | 0 | 100 | 100 | 99 | 98 | 25 | 98 | 0 | 98 | 90
CCc1nn(C)c(=O)c(-c2cc(Oc3ncc(C(F)(F)F)cc3Cl)ccc2C)c1OC(C)=O [1-137] | 0 | 80 | 100 | 95 | 75 | 85 | 93 | 15 | 93 | 85
CCc1nn(C)c(=O)c(-c2cc(Oc3ncc(C(F)(F)F)cc3Cl)ccc2C)c1OCOC [1-138] | 0 | 60 | 100 | 83 | 85 | 0 | 70 | 30 | 90 | 83
CCc1nn(C)c(=O)c(-c2cc(Oc3ncc(C(F)(F)F)cc3Cl)ccc2C)c1OC(C)OC(=O)OC (stereo not drawn) [1-139] | 0 | 60 | 100 | 50 | 80 | 20 | 98 | 15 | 88 | 45
CC(=O)Oc1c(C(F)(F)F)nn(C)c(=O)c1-c1cc(Oc2ncc(C(F)(F)F)cc2Cl)ccc1C [1-142] | 20 | 40 | 90 | 50 | 88 | 15 | 20 | 40 | 85 | 20
CC(=O)Oc1c(C)nn(C)c(=O)c1-c1cc(Oc2nc3ccc(Cl)cc3s2)ccc1C [Compound 2-132] |  | 80 | 90 | 0 | 50 | 40 | 78 | 30 | 90 | 70
